# Measured values: US6369246B2, “Synthesis and pharmaceuticals of novel 9-substituted-1, 5-dichloroanthracene analogs” (Dr. Keith Chan, GloboAsia, LLC, priority 1999, dated 2002)
# System: GBM cell line (human cervical carcinoma cells of ME 180 (GBM8401))
# Assay: Growth inhibition assay, GBM cell line
# Type: cell-based
# Conditions: 48 hours, cell counting, read-out: IC50 GBM (concentration required to inhibit cell growth by 50% relative to controls)
# Procedure: (§1) Growth inhibition was measured in three human carcinoma cell lines (GBK KB and CHO) using a previously described […] assay. Hwang, J.-M. et al., Chin. Med. J (Taipei), 51, 166-175 (1993). Human oral epidermoid carcinoma cells (KB cell line), human cervical carcinoma cells of ME 180 (GBM8401) and Chinese hamster ovary (CHO) cells grown in plateau phase were used in all experiments. Each cell line was further divided into control and experimental groups, respectively.
# (§2) Stock solutions of the test compounds were prepared in DMSO and diluted with DMEM to give a final concentration of DMSO of 0.2%. Controls were performed with DMSO or with medium alone. The medium was removed and each well was rinsed with 100 μL PBS 48 hours after addition of the test compound to the culture. The cells were then incubated with sterile 0.5% trypsin, 0.2% EDTA in PBS for 20 minutes at 37° C. The detached cells from each well were suspended in DMEM and dispersed into single cells by gentle pipeting through an Eppendorf pipette and cell growth was determined directly by counting the cells in a Neubauer counting chamber using phase contrast microscopy. Inhibition was calculated by comparison of the mean values of the test compound (N=3) with the control (N=6−8) activity: (1-test compound/control) ×100. Inhibition was statistically significant compared to that of control (Student's t Test; P=0.05). IC50 values (concentration required to inhibit cell growth by 50%) were determined for each agent which was derived by interpolation of a log inhibitor concentration versus response plot using four or more different concentrations of the compound spanning the 50% inhibition point.
row,Structure (SMILES),IC50
1,O=C(Cc1ccccc1)Oc1c2cccc(Cl)c2cc2cccc(Cl)c12 [Compound 3v],110 µM
2,"CO[C@@]12[C@H](COC(N)=O)C3=C(C(=O)C(C)=C(N)C3=O)N1C[C@@H]1N[C@@H]12 [Mitomycin-C, reference compound]",1900 µM

# Second part, the molecule after the results:
row,IC50,Structure (SMILES)
1,398 µM,"Cc1cccc(C(=O)Oc2c3cccc(Cl)c3cc3cccc(Cl)c23)c1 [Compound 3n, 1,5-Dichloro-9-(m-toluyloxy)-anthracene]"
2,11.7 µM,O=C(Oc1c2cccc(Cl)c2cc2cccc(Cl)c12)c1cccc(Cl)c1 [Compound 3p]
3,10.8 µM,COc1cc(Cl)ccc1C(=O)Oc1c2cccc(Cl)c2cc2cccc(Cl)c12 [Compound 3t]
4,87.7 µM,O=C(Oc1c2cccc(Cl)c2cc2cccc(Cl)c12)c1ccc(Cl)cc1Cl [Compound 3u]
5,1730 µM,O=C(CCc1ccccc1)Oc1c2cccc(Cl)c2cc2cccc(Cl)c12 [Compound 3w]

# Same assay, conditions: Homo sapiens, ME-180, 48 hours, cell counting, read-out: IC50 GBM (concentration required to inhibit cell growth by 50% relative to controls)
row,Structure (SMILES),IC50
1,"COc1cccc2c1C(=O)c1c(O)c3c(c(O)c1C2=O)C[C@@](O)(C(=O)CO)C[C@@H]3O[C@H]1C[C@H](N)[C@H](O)[C@H](C)O1 [Doxorubicin, reference compound]",599 µM
2,"CN(Cc1cnc2nc(N)nc(N)c2n1)c1ccc(C(=O)N[C@@H](CCC(=O)O)C(=O)O)cc1 [Methotrexate, reference compound]",9290 µM

# Next, values leading:
row,IC50,Structure (SMILES)
1,226 µM,"O=C(Oc1c2cccc(Cl)c2cc2cccc(Cl)c12)c1ccccc1 [Compound 3L, 1,5-Dichloro-9-benzoyloxy-anthracene]"
2,48.1 µM,"CC(=O)Oc1c2cccc(Cl)c2cc2cccc(Cl)c12 [Compound 3a, 1,5-Dichloro-9-acetyloxy-anthracene]"

# System: Human oral epidermoid carcinoma cells (KB cell line)
# Assay: Growth inhibition assay, KB cell line
# Type: cell-based
# Conditions: 48 hours, cell counting, read-out: IC50 KB (concentration required to inhibit cell growth by 50% relative to controls)
# Procedure: as §1, §2
row,IC50,Structure (SMILES)
1,111 µM,"Cc1cccc(C(=O)Oc2c3cccc(Cl)c3cc3cccc(Cl)c23)c1 [Compound 3n, 1,5-Dichloro-9-(m-toluyloxy)-anthracene]"
2,1050 µM,O=C(Oc1c2cccc(Cl)c2cc2cccc(Cl)c12)c1cccc(Cl)c1 [Compound 3p]
3,818 µM,COc1cc(Cl)ccc1C(=O)Oc1c2cccc(Cl)c2cc2cccc(Cl)c12 [Compound 3t]
4,108 µM,O=C(Oc1c2cccc(Cl)c2cc2cccc(Cl)c12)c1ccc(Cl)cc1Cl [Compound 3u]
5,936 µM,O=C(CCc1ccccc1)Oc1c2cccc(Cl)c2cc2cccc(Cl)c12 [Compound 3w]

row,Structure (SMILES),IC50
1,O=C(Cc1ccccc1)Oc1c2cccc(Cl)c2cc2cccc(Cl)c12 [Compound 3v],12.6 µM

# Same assay, conditions: Homo sapiens, 48 hours, cell counting, read-out: IC50 KB (concentration required to inhibit cell growth by 50% relative to controls)
row,Structure (SMILES),IC50
1,"COc1cccc2c1C(=O)c1c(O)c3c(c(O)c1C2=O)C[C@@](O)(C(=O)CO)C[C@@H]3O[C@H]1C[C@H](N)[C@H](O)[C@H](C)O1 [Doxorubicin, reference compound]",420 µM
2,"CN(Cc1cnc2nc(N)nc(N)c2n1)c1ccc(C(=O)N[C@@H](CCC(=O)O)C(=O)O)cc1 [Methotrexate, reference compound]",47200 µM

# The next lines start with the values.
row,IC50,Structure (SMILES)
1,813 µM,"O=C(Oc1c2cccc(Cl)c2cc2cccc(Cl)c12)c1ccccc1 [Compound 3L, 1,5-Dichloro-9-benzoyloxy-anthracene]"
2,473 µM,"CC(=O)Oc1c2cccc(Cl)c2cc2cccc(Cl)c12 [Compound 3a, 1,5-Dichloro-9-acetyloxy-anthracene]"

# System: iron-induced lipid peroxidation in rat brain homogenates
# Assay: Lipid peroxidation assay (TBA)
# Type: biochemical, Wistar rats
# Conditions: 1 μM compound, ferrous ion 200 μM, 37° C. 30 min
# Procedure: Rat brain homogenate was prepared from the brains of freshly killed Wistar rats and its peroxidation. In the presence of iron ions was measured by the thiobarbituric acid (TBA). Teng, C. M. et al., Eur. J. Pharmacol., 303, 129-139 (1996). Tetramethoxypropane was used as a standard, and the results were expressed as nanomoles of malondialdehyde equivalents per milligram of protein of rat brain homogenates. In brief, whole brain tissue, excluding the cerebellum, was washed and homogenized in 10 volumes of ice-cold Krebs buffer (10 mM N-2 hydroxyethyl-piperazine-N′-2-ethanesulfonic acid (Hepes), 10 mM glucose, 140 mM NaCl, 3.6 mM KCl, 1.5 mM CaCl2, 1.4 mM KH2PO4, 0.7 mM MgSO4, pH 7.4) using a glass Dounce homogenizer. […] The reaction mixture with test compounds or vehicle was incubated for 10 min, then stimulated by addition of ferrous ion (200 μM freshly prepared), and maintained at 37° C. for 30 min. The reactions were terminated by adding […] of ice-cold trichloroacetic acid solution (4% (w/v) in 0.3 N HCl) and […], of thiobarbituric acid-reactive substance reagent (0.5% (w/v) thiobarbituric acid in 50% (v/v) acetic acid). After boiling for 15 min, the samples were cooled and extracted with n-butanol. The extent of lipid peroxidation was estimated as thiobarbituric acid-reactive substances and was read at 532 nm in a spectrophotometer (Shimadzu UV-160).
row,Structure (SMILES),"% Inhibition (1 μM), relative percentage of inhibition"
1,"Cc1c(C)c2c(c(C)c1O)CC[C@@](C)(CCC[C@H](C)CCC[C@H](C)CCCC(C)C)O2 [(+)-a-Tocopherol, reference compound]",61.6%
2,"O=C(Oc1c2cccc(Cl)c2cc2cccc(Cl)c12)c1ccccc1 [Compound 3L, 1,5-Dichloro-9-benzoyloxy-anthracene]",4.6%
3,"CC(=O)Oc1c2cccc(Cl)c2cc2cccc(Cl)c12 [Compound 3a, 1,5-Dichloro-9-acetyloxy-anthracene]",25.5%
4,"Cc1cccc(C(=O)Oc2c3cccc(Cl)c3cc3cccc(Cl)c23)c1 [Compound 3n, 1,5-Dichloro-9-(m-toluyloxy)-anthracene]",10.9%
5,O=C(Oc1c2cccc(Cl)c2cc2cccc(Cl)c12)c1cccc(Cl)c1 [Compound 3p],8.6%
6,COc1cc(Cl)ccc1C(=O)Oc1c2cccc(Cl)c2cc2cccc(Cl)c12 [Compound 3t],0%
7,O=C(Oc1c2cccc(Cl)c2cc2cccc(Cl)c12)c1ccc(Cl)cc1Cl [Compound 3u],1.7%
8,O=C(Cc1ccccc1)Oc1c2cccc(Cl)c2cc2cccc(Cl)c12 [Compound 3v],13.7%
9,O=C(CCc1ccccc1)Oc1c2cccc(Cl)c2cc2cccc(Cl)c12 [Compound 3w],29.3%

# Same assay, conditions: 10 μM compound, ferrous ion 200 μM, 37° C. 30 min
row,Structure (SMILES),"% Inhibition (10 μM), relative percentage of inhibition"
1,"Cc1c(C)c2c(c(C)c1O)CC[C@@](C)(CCC[C@H](C)CCC[C@H](C)CCCC(C)C)O2 [(+)-a-Tocopherol, reference compound]",100%
2,"O=C(Oc1c2cccc(Cl)c2cc2cccc(Cl)c12)c1ccccc1 [Compound 3L, 1,5-Dichloro-9-benzoyloxy-anthracene]",14.0%
3,"CC(=O)Oc1c2cccc(Cl)c2cc2cccc(Cl)c12 [Compound 3a, 1,5-Dichloro-9-acetyloxy-anthracene]",34.4%
4,"Cc1cccc(C(=O)Oc2c3cccc(Cl)c3cc3cccc(Cl)c23)c1 [Compound 3n, 1,5-Dichloro-9-(m-toluyloxy)-anthracene]",22.4%
5,O=C(Oc1c2cccc(Cl)c2cc2cccc(Cl)c12)c1cccc(Cl)c1 [Compound 3p],30.6%
6,COc1cc(Cl)ccc1C(=O)Oc1c2cccc(Cl)c2cc2cccc(Cl)c12 [Compound 3t],10.3%
7,O=C(Oc1c2cccc(Cl)c2cc2cccc(Cl)c12)c1ccc(Cl)cc1Cl [Compound 3u],16.0%
8,O=C(Cc1ccccc1)Oc1c2cccc(Cl)c2cc2cccc(Cl)c12 [Compound 3v],32.8%
9,O=C(CCc1ccccc1)Oc1c2cccc(Cl)c2cc2cccc(Cl)c12 [Compound 3w],36.6%

# System: Chinese hamster ovary (CHO) cells
# Assay: Growth inhibition assay, CHO cells
# Type: cell-based
# Conditions: 48 hours, cell counting, read-out: IC50 CHO (concentration required to inhibit cell growth by 50% relative to controls)
# Procedure: as §1, §2
row,Structure (SMILES),IC50
1,"Cc1cccc(C(=O)Oc2c3cccc(Cl)c3cc3cccc(Cl)c23)c1 [Compound 3n, 1,5-Dichloro-9-(m-toluyloxy)-anthracene]",1200 µM
2,COc1cc(Cl)ccc1C(=O)Oc1c2cccc(Cl)c2cc2cccc(Cl)c12 [Compound 3t],114 µM
3,O=C(Oc1c2cccc(Cl)c2cc2cccc(Cl)c12)c1ccc(Cl)cc1Cl [Compound 3u],1180 µM
4,O=C(Cc1ccccc1)Oc1c2cccc(Cl)c2cc2cccc(Cl)c12 [Compound 3v],1190 µM
5,O=C(CCc1ccccc1)Oc1c2cccc(Cl)c2cc2cccc(Cl)c12 [Compound 3w],1160 µM
6,"CO[C@@]12[C@H](COC(N)=O)C3=C(C(=O)C(C)=C(N)C3=O)N1C[C@@H]1N[C@@H]12 [Mitomycin-C, reference compound]",2120 µM

# Same assay, conditions: Cricetulus griseus, 48 hours, cell counting, read-out: IC50 CHO (concentration required to inhibit cell growth by 50% relative to controls)
row,Structure (SMILES),IC50
1,"O=C(Oc1c2cccc(Cl)c2cc2cccc(Cl)c12)c1ccccc1 [Compound 3L, 1,5-Dichloro-9-benzoyloxy-anthracene]",1440 µM
2,"CC(=O)Oc1c2cccc(Cl)c2cc2cccc(Cl)c12 [Compound 3a, 1,5-Dichloro-9-acetyloxy-anthracene]",114 µM
3,"COc1cccc2c1C(=O)c1c(O)c3c(c(O)c1C2=O)C[C@@](O)(C(=O)CO)C[C@@H]3O[C@H]1C[C@H](N)[C@H](O)[C@H](C)O1 [Doxorubicin, reference compound]",499 µM
4,"CN(Cc1cnc2nc(N)nc(N)c2n1)c1ccc(C(=O)N[C@@H](CCC(=O)O)C(=O)O)cc1 [Methotrexate, reference compound]",9140 µM
